How the values were obtained:
[1] = system: MCF-7 breast cancer cells; test: AlamarBlue viability and proliferation assay of MCF-7 breast cancer cells; assay type: cell-based, human; conditions: MCF-7 cells
Protocol: For the biological studies, MCF-7 breast cancer cells were obtained from an immortal cell line from human adenocarcinoma from (primary site) mammary gland and (metastatic site) pleural effusion (ATCC no HTB-22).
MCF-7 breast cancer cells were cultured in Dulbecco's modified Eagle's medium (DMEM), 13.53 g/L with sodium bicarbonate (NaHCO3), 3.7 g/L supplemented with 10% foetal bovine serum (FBS), 1% gentamycin and 5% Penicillin/Streptomycin/Fungizone in 75 cm^3 culture flasks. Cells were subcultured twice a week and incubated at 37° C. with 5% CO2 in a humidified atmosphere. Hanks balanced salt solution (HBSS), supplemented DMEM media and trypsin versene were warmed to 37° C. prior to subculturing. Cells were washed twice with 10 ml Hanks balanced salt solution for 1 minute and were then incubated for 4.5 to 5 minutes at 37° C. with 6 ml trypsin versene to remove the cells from the culture flask. To inactivate the trypsin versene, 10 ml supplemented DMEM was added and the cells were pelleted by centrifugation at 1028 g for 4 minutes with an Allegra™ 25R Centrifuge. The pellet was resuspended in 1 ml supplemented DMEM and 500 μl of the cell suspension was then added to 25 ml of supplemented DMEM media in 75 cm^3 culture flasks.
MCF-7 breast cancer cells, in terms of a first study, and SNO-oesophageal cancer cells, in terms of a second study, were treated with 10 μM silverthiocyanide complexes (1)-(5), as well as their ligands (Ligand-1 to Ligand-5) over a 24 hour incubation period. […] An untreated negative control (UT) was exposed to similar conditions as the treated cells and monitored during the experimental study.
The AlamarBlue® viability and proliferation assay of complexes (1)-(5) for the MCF-7 breast cancer cells is depicted in FIGS. 1A to 1F. The percentage viability of control samples determined by the AlamarBlue® viability and proliferation assay is depicted in FIG. 1A. […] A significant difference (P<0.001) between the control and the treated samples was calculated using Student's T-test and is indicated by an asterisk.
(§1) This Figure depicts the percentage viability of MCF-7 cells treated with various concentrations of complex (1) as determined by the AlamarBlue® viability and proliferation assay. […] The asterisk indicates a significant difference between a sample and the control (P<0.001) as calculated with Student's T-test.
as §1, with “FIG. 1C to FIG. 1F represent the dose dependant studies of complexes (2) to (5), respectively. In each of these Figures,” for “This Figure depicts”, “complexes (2) to (5) was” for “complex (1) as”, “T-test. […]” for “T-test.”

[2] = system: SNO-oesophageal cancer cells; assay type: cell-based
Protocol: The SNO-oesophageal cancer cells were cultured in Dulbecco's modified Eagles medium (DMEM) containing 10% Foetal bovine serum (FBS), 0.8% Penicillin/Streptomycin/Fungizone and 0.2% Gentamycin. The SNO-oesophageal cancer cells were subcultured every 48 hours and incubated at 37° C. under a 5% CO2 humidified atmosphere. After 48 hours the cells were trypsinized and plated (6×10^5 cells) in 3.5 cm culture dishes and left to cultivate for 24 hours.
MCF-7 breast cancer cells, in terms of a first study, and SNO-oesophageal cancer cells, in terms of a second study, were treated with 10 μM silverthiocyanide complexes (1)-(5), as well as their ligands (Ligand-1 to Ligand-5) over a 24 hour incubation period. These complexes were dissolved in 0.1% Dimethyl sulfoxide (DMSO). The DMSO alone (vehicle control) decreased the viability with approximately 2.2%, signifying its minimal influence in cancer cell growth. For comparative purposes, 100 μM Cisplatin (CDDP) and 25% H2O2 was included which respectively serves as the apoptotic and necrotic controls. Cisplatin was prepared in 0.9% NaCl, whereas H2O2 was prepared in the supplemented DMEM media right before treatment. An untreated negative control (UT) was exposed to similar conditions as the treated cells and monitored during the experimental study.
An AlamarBlue® Viability® (Serotec, UK) assay was performed after a 24 hour treatment with complexes (1)-(5) and their ligands (Ligand-1 to Ligand-5, respectively) to evaluate the cellular effect the instant complexes (and their ligands) may have on the cancer cells. AlamarBlue® dye (10%) was incubated with trypsinized cells over a 2 hour period before the fluorescence was measured with a Synergy HT Multi-Detection Microplate reader (BioTek, Winooski, Vt.) at wavelengths of 530 nm and (excitation) and 590 nm (emission). This fluorescent based assay in particular involves the metabolic oxidation-reduction reaction of resazurin to a reduced resorufin product that is directly proportional to the amount of viable cells.
The percentage cellular viability of differentially treated SNO-oesophageal cells was determined using an AlamarBlue® assay, as depicted in FIG. 7. Different controls (grey) were included: untreated, 0.1% DMSO solvent and apoptotic control (100 μM Cisplatin) as well as the corresponding ligands (10 μM) of complexes (1)-(5). Cells were treated with silver(I) thiocyanate phosphine complexes (1)-(5) at a concentration of 10 μM. The percentages were calculated with respect to the control and error bars were constructed on the basis of Standard Error of the Mean (SEM) where n=9 except for the ligand of compound 4 (n=8). The P-values (*P<0.001 and **P<0.0001) were determined with the Student's T-test to evaluate the significant difference.
The cells were thereafter treated with complexes (6)-(9) at a concentration of 10 μM prepared in 0.1% DMSO. Treatment with either 25% H2O2 or 100 μM CDDP served as controls for necrosis and apoptosis respectively. The CDDP was prepared in 0.9% NaCl while the H2O2 was diluted with supplemented DMEM prior to treatment.
A suspension (100 μl) of the differentially treated cells was added in triplicate to a microtiter plate. In the dark, AlamarBlue® dye (10 μl) was added to each well containing a sample, followed by a 2 hour incubation in a 5% CO2 incubator at 37° C. The fluorescence was read on a Synergy HT Multi-Detection Microplate reader at a wavelength of 530 nm and (excitation) and 590 nm (emission). In terms of this study, the apoptotic control CDDP (100 μM) was included. Error bars represent the standard error of the mean (SEM) where n=9. The Student's T-test was used to determine the significant difference of the treatments with respect to DMSO (P*<0.05 and P**<0.001). The silver(I) nitrate phosphine complexes under evaluation decreased the cancer cell viability to a large extent compared to DMSO except complex (9).
SNO-oesophageal cancer cells were a gift from the University of Pretoria, RSA. […]

| Molecule | cytotoxic activity (ranking) [1] | percentage cellular viability / toxicity ([2]; 10 μM, 24 hour treatment, compared to the control) | cancer cell viability / toxicity ([2]; 10 μM in 0.1% DMSO, 24 hours, compared to vehicle control) | cancer cell death induced ([2]; 10 μM, 24 hours) [%] |
| --- | --- | --- | --- | --- |
| C1#[N+][Ag]([P+](c2ccccc2)(c2ccccc2)c2ccccc2)([P+](c2ccccc2)(c2ccccc2)c2ccccc2)[S]C#[N+][Ag]([P+](c2ccccc2)(c2ccccc2)c2ccccc2)([P+](c2ccccc2)(c2ccccc2)c2ccccc2)[S]1 [complex (1), [AgSCN(PPh3)2]2] | strongest | – | – | – |
| [AgSCN{P(4-FC6H4)3}2]2 [complex (3)] | strongest | highly toxic | – | – |
| c1ccc([P+](c2ccccc2)(c2ccccc2)[Ag+]([P+](c2ccccc2)(c2ccccc2)c2ccccc2)([P+](c2ccccc2)(c2ccccc2)c2ccccc2)[P+](c2ccccc2)(c2ccccc2)c2ccccc2)cc1 [complex (9), AgNO3(PPh3)4] | – | – | low cytotoxicity | ~31.25 |

Source: US10583109B2, “Use of silver(I) complexes as anticancer agents” (University of Johannesburg, priority 2012, dated 2020)
